Results from patent US5229420A, “Ethereal N-terminal aminodiol amino acid derivatives as anti-hypertensive agents” (G. D. Searle & Co., priority 1991, dated 1993).
Where a SMILES comes first, the peptide text is derived from it. [ ]: non-standard residue; d: D form. The star is where a group is joined. Sta = CC(C)C[C@H](N)[C@@H](O)CC(=O)O; Isovaleryl = CC(C)CC(=O)*

Experiments:
Plasma Renin Activity = experiment: Oral Effect of Compounds on Plasma Renin Activity in Sodium Depleted Marmoset; assay type: in vivo, Common marmosets (Callithrix jacchus); settings: @ 1 h, 3 mg/kg dose
Procedure: The oral activity of compounds of Formula I was determined in vivo in Marmoset monkeys in accordance with the following procedure: Common marmosets (Callithrix jacchus, Charles River) were placed on a modified high protein low sodium diet (Purina, St. Louis, Mo.) for 1 to 2 weeks. On the day of the test an animal was anesthetized with isoflurane and cannulated in the femoral artery and vein for blood pressure monitoring, intravenous saralasin infusion and blood sampling. After allowing the animal to recover from surgery for 2 hr, saralasin was infused at 1 microgram/min for 15 minutes to confirm that the animal's blood pressure was dependent on angiotensin II levels. The marmoset was allowed to stabilize for 30 min after the saralasin infusion. The test compound was administered orally and blood pressure was monitored for 2 hr. Blood samples were taken in K-EDTA for plasma renin activity before, 30 min, and 1 hr after compound administration.

human renin = biological target: T1, human renin (Homo sapiens, UniProt P00797); experiment: human renin inhibition test, in vitro (angiotensin I by radioimmunoassay); assay type: biochemical; settings: pH 7.4, 37° C., two hours
T1 construct: purchased National Institute for Biological Standards, London
T1 sequence (P00797 67-406): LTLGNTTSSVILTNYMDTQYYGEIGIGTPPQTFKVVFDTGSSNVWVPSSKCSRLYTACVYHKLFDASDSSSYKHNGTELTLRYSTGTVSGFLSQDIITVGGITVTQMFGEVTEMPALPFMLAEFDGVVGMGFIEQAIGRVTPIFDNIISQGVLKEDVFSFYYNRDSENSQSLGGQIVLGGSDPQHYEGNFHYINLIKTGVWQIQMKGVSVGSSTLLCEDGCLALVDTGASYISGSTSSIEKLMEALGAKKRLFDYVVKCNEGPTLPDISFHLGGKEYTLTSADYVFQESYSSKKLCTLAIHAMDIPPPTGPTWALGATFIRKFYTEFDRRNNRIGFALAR
Procedure: Compounds of Formula I were evaluated as inhibitors of human renin in an in vitro assay, as follows: This human renin inhibition test has been previously described in detail [Papaioannou et al., Clinical and Experimental Hypertension, A7(9), 1243-1257 (1985)]. Human renin was obtained from the National Institute for Biological Standards, London. An incubation mixture was prepared containing in total volume of 0.25 mL 100 mM Tris-acetate buffer at pH 7.4, 25×10^-6 Goldblatt units of renin, 0.05 mL of plasma from human volunteers taking oral contraceptives,6.0 mM sodium EDTA, 2.4 mM phenylmethyl sulfonyl fluoride, 1.5 mM 8-hydroxyquinoline, 0.4 mg/mL BSA, and 0.024 mg/mL neomycin sulfate. This mixture was incubated for two hours at 37° C. in the presence or absence of renin inhibitors. The produced angiotensin I was determined by radioimmunoassay (New England Nuclear kit). Test compounds to be assayed were solubilized in DMSO and diluted with 100mM Tris-acetate buffer at pH 7.4 containing 0.5 % bovine serum albumin (BSA) to the appropriate concentration. The final concentration of organic solvent in the reaction mixture was less than 1%. Control incubations at 37° C. were used to correct for effects of organic solvent on renin activity.

renin = settings: cited from earlier work
pepsin = settings: cited from earlier work
cathepsin D = settings: cited from earlier work
hog renin = settings: after injection of hog renin into nephrectomized rats; cited from earlier work

Row | Compound | % Reduction of Plasma Renin Activity (Plasma Renin Activity) [%] | IC50 (human renin) [nM] | other results
1 | COCCN(C)C(=O)O[C@@H](Cc1ccccc1)C(=O)N[C@@H](Cc1cnc[nH]1)C(=O)N[C@@H](CC1CCCCC1)[C@@H](O)[C@@H](O)CC(C)C [Example 8, O-[N-methyl-N-(2-methoxyethyl)aminocarbonyl]-3-L-phenyllactyl-L-histidineamide of (2S,3R,4S)-2-amino-1-cyclohexyl-3,4-dihydroxy-6-methylheptane] | 99 | 1.2 | 
2 | COCCN(C)C(=O)O[C@@H](Cc1ccccc1)C(=O)N[C@@H](CC(C)C)C(=O)N[C@@H](CC1CCCCC1)[C@@H](O)[C@@H](O)CC(C)C [Example 9, O-(N-methyl-N-(2-methoxyethyl)aminocarbonyl)-3-L-phenyllactyl-L-leucineamide of (2S,3R,4S)-2-amino-1-cyclohexyl-3,4-dihydroxy-6-methylheptane] | 79 | 10 | 
3 | COCCN(C)C(=O)O[C@@H](Cc1ccccc1)C(=O)NC[C@@H](C)C(=O)N[C@@H](CC1CCCCC1)[C@@H](O)[C@@H](O)CC(C)C [Example 13, O-(N-methyl-N-(2-methoxyethyl)aminocarbonyl)-3-L-phenyllactyl-α-(R)-methyl-β-alanineamide of (2S,3R,4S)-2-amino-1-cyclohexyl-3,4-dihydroxy-6-methylheptane] |  | 62 | 
4 | CC[C@H](CNC(=O)[C@H](CCc1ccccc1)CC(=O)N(C)CCOC)C(=O)N[C@@H](CC1CCCCC1)[C@@H](O)[C@@H](O)CC(C)C [Example 15, 3-(N-methyl-N-(2-methoxyethyl)aminocarbonyl)-2-(R)-(2-phenylethyl)propionyl-α-(R)-ethyl-β-alanineamide of (2S,3R,4S)-2-amino-1-cyclohexyl-3,4-dihydroxy-6-methylheptane] |  |  | inhibition at 0.05 µM (human renin; @ 5 × 10^-8 M): 17%
5 | COCCN(C)C(=O)C[C@@H](CCc1ccccc1)C(=O)NC[C@@H](C)C(=O)N[C@@H](CC1CCCCC1)[C@@H](O)[C@@H](O)CC(C)C [Example 16, 3-(N-methyl-N-(2-methoxyethyl)aminocarbonyl)-2-(R)-2-phenethylpropionyl-α-(R)-methyl-β-alanineamide of (2S,3R,4S)-2-amino-1-cyclohexyl-3,4-dihydroxy-6-methylheptane] |  | 45 | 
6 | CC(C)CC(=O)N[C@H](C(=O)N[C@H](C(=O)N[C@@H](CC(C)C)[C@@H](O)CC(=O)N[C@@H](C)C(=O)N[C@@H](CC(C)C)[C@@H](O)CC(=O)O)C(C)C)C(C)C [pepstatin] (Isovaleryl-VV[Sta]A[Sta]-OH) |  |  | inhibition of renin (in words) (renin): inhibitor of aspartyl proteases such as pepsin, cathepsin D and renin; inhibition of pepsin (in words) (pepsin): inhibitor of aspartyl proteases such as pepsin; inhibition of cathepsin D (in words) (cathepsin D): inhibitor of aspartyl proteases such as pepsin, cathepsin D; reduction of blood pressure in vivo (hog renin): found to reduce blood pressure in vivo
